Results published in patent publication US5663201A, “Desferrioxamine-B salts” (CIBA-GEIGY Corporation, priority 1992, dated 1997).
Structures can show the parent of a compound that is named as a salt. Where two headings read alike, the source gives them in different places.

Experiments:
[1] = assay type: physicochemical; details: n-octanol/water, 5000 µM
Protocol: (§1) The partition coefficients of the salts prepared in Examples 1 to 5 between n-octanol and water are determined by the `shake-flask` method of Leo et at, Chem. Rev., 71(6), 525 (1971).
The n-octanol and aqueous phases are mutually saturated prior to conducting the experiment. The desferrioxamine-B sulphonic acid addition salt is dissolved in the aqueous phase at a concentration of 0.005 mol/l and the partition experiment is performed by shaking the vessel containing the two phases until an equilibrium has been achieved. […] After equilibrium has been achieved, the sample is centrifuged to enable phase separation. Both organic and aqueous phases are analysed for desferrioxamine-B content via extraction of an appropriate aliquot, quenching with an aqueous (for assay of the aqueous phase) or methanolic (for assay of the n-octanol phase) solution of FeCl3, and measurement of the absorption of the characteristic ferrioxamine-B chelate at ca. 450 nm. Respective calibration plots (absorbance vs. concentration of desferrioxamine-B sulphonic acid salt) for the assay of both aqueous and organic phases show a linear response over the concentration range studied. The results obtained are as follows: […]

[2] = assay type: physicochemical; details: n-octanol/phosphate buffer, pH 7.4
Protocol: as §1
The n-octanol and aqueous phases are mutually saturated prior to conducting the experiment. The desferrioxamine-B sulphonic acid addition salt is dissolved in the aqueous phase at a concentration of 0.005 mol/l and the partition experiment is performed by shaking the vessel containing the two phases until an equilibrium has been achieved. […] After equilibrium has been achieved, the sample is centrifuged to enable phase separation. Both organic and aqueous phases are analysed for desferrioxamine-B content via extraction of an appropriate aliquot, quenching with an aqueous (for assay of the aqueous phase) or methanolic (for assay of the n-octanol phase) solution of FeCl3, and measurement of the absorption of the characteristic ferrioxamine-B chelate at ca. 450 nm. Respective calibration plots (absorbance vs. concentration of desferrioxamine-B sulphonic acid salt) for the assay of both aqueous and organic phases show a linear response over the concentration range studied. The results obtained are as follows:
The partition coefficients of the salts prepared in Examples 1 to 5 between n-octanol and an aqueous phosphate buffer at pH7.4 having an ionic strength of 0.31 mol/l are determined using the procedure of Examples 6-10. The results obtained are as follows:
The use of n-octanol/aqueous media partition coefficients as a model for the lipophilicity of drugs is well established (see the abovementioned Leo et al reference). The aqueous phase in Examples 11 to 15 simulates physiological conditions.

[3] = test system: Daudi cell line (B-cell lymphoma); experiment: iron-chelation bioassay: growth inhibiting effect on cells through iron removal, [3H] Thymidine uptake; assay type: cell-based; details: 72 hours, Control (0 μM): Ex 18 22297, Ex 19 23897, listed as decanesulphonate
Protocol: The iron-chelating properties of salts of the invention in a biological system are determined by means of a bioassay in which the growth inhibiting effect of the salts on cells through iron removal is measured by the uptake of radioactively labelled thymidine into the cells. The bioassay is carried out using a Daudi cell line (B-cell lymphoma), a Roswell Park Memorial Institute (RPMI) 1640 medium containing 1 µM ferric citrate and supplements as low iron washing medium and RPM11640 together with 5% by weight of foetal calf serum as passaging medium.
The cells are fed 24 hours before use. They are washed twice in the low iron washing medium to remove any excess iron and diluted with this medium to a concentration of 0.2×10^6 cells/0.180 ml. To 0.180 ml aliquots are added 0.02 ml of solutions of the desferrioxamine-B salts under test in phosphate-buffered saline (PBS) to give concentrations ranging from a Control containing no salt to a […] solution. The cells are then incubated at 37° C. in an atmosphere containing 5% by volume of carbon dioxide for 72 hours, being pulsed for the last 8 hours of that time with labelled [^3 H] Thymidine at 5 micro Ci/ml. The resulting cells are harvested and their radioactive disintegrations are counted for 10 minutes. The results are shown in the table below as the average of 4 separate experiments (except the Control result in Example 18 which is the average of 3 separate experiments).

[4] = intrinsic dissolution of tablets, Langenbucher flow-through apparatus; assay type: physicochemical; details: water, 25° C., listed as decanesulphonate
Protocol: Tablets are prepared from the salts of Examples 1 and 4 by compressing a mixture of 99 parts of the salt and 1 part of magnesium stearate in a 13mm die for 2 minutes under a pressure of 4×10^5 kPa. The intrinsic dissolution rates of the tablets are determined using a Langenbucher flow-through apparatus, with water at 25° C. as the dissolution medium. The amount of desferrioxamine-B dissolved in the medium is measured at intervals using a spectrophotometric assay at 215 nm.

## CC(=O)N(O)CCCCCNC(=O)CCC(=O)N(O)CCCCCNC(=O)CCC(=O)N(O)CCCCCN [Example 1, decane-1-sulphonate/salt of desferrioxamine-B]
[1]
  Partition Coefficient: 0.366
[2]
  Partition Coefficient: 0.060
[3]; 0.5 μM salt
  Disintegrations Per Minute ([3H] Thymidine uptake): 23603 Disintegrations Per Minute
[3]; 1 μM salt
  Disintegrations Per Minute ([3H] Thymidine uptake): 14161 Disintegrations Per Minute
[3]; 2 μM salt
  Disintegrations Per Minute ([3H] Thymidine uptake): 6847 Disintegrations Per Minute
[3]; 3 μM salt
  Disintegrations Per Minute ([3H] Thymidine uptake): 6599 Disintegrations Per Minute
[3]; 4 μM salt
  Disintegrations Per Minute ([3H] Thymidine uptake): 5445 Disintegrations Per Minute
[3]; 5 μM salt
  Disintegrations Per Minute ([3H] Thymidine uptake): 5139 Disintegrations Per Minute
[3]; 6 μM salt
  Disintegrations Per Minute ([3H] Thymidine uptake): 4382 Disintegrations Per Minute
[3]; 7.5 μM salt
  Disintegrations Per Minute ([3H] Thymidine uptake): 3262 Disintegrations Per Minute
[3]; 10 μM salt
  Disintegrations Per Minute ([3H] Thymidine uptake): 2172 Disintegrations Per Minute
[3]; 15 μM salt
  Disintegrations Per Minute ([3H] Thymidine uptake): 1101 Disintegrations Per Minute
[3]; 20 μM salt
  Disintegrations Per Minute ([3H] Thymidine uptake): 494 Disintegrations Per Minute
[4]; 1 min
  % Desferrioxaine-B salt dissolved: 1.01%
[4]; 2 min
  % Desferrioxaine-B salt dissolved: 1.65%
[4]; 5 min
  % Desferrioxaine-B salt dissolved: 2.90%
[4]; 10 min
  % Desferrioxaine-B salt dissolved: 4.67%
[4]; 15 min
  % Desferrioxaine-B salt dissolved: 6.17%
[4]; 20 min
  % Desferrioxaine-B salt dissolved: 7.50%
[4]; 30 min
  % Desferrioxaine-B salt dissolved: 9.97%
[4]; 50 min
  % Desferrioxaine-B salt dissolved: 14.21%
[4]; 75 min
  % Desferrioxaine-B salt dissolved: 18.80%
[4]; 100 min
  % Desferrioxaine-B salt dissolved: 22.92%
[4]; 125 min
  % Desferrioxaine-B salt dissolved: 26.62%
[4]; 150 min
  % Desferrioxaine-B salt dissolved: 30.13%
[4]; 175 min
  % Desferrioxaine-B salt dissolved: 33.49%
[4]; 200 min
  % Desferrioxaine-B salt dissolved: 36.85%
[4]; 225 min
  % Desferrioxaine-B salt dissolved: 39.97%
[4]; 250 min
  % Desferrioxaine-B salt dissolved: 42.94%
[4]; 275 min
  % Desferrioxaine-B salt dissolved: 45.87%
[4]; 300 min
  % Desferrioxaine-B salt dissolved: 48.81%

## CC(=O)N(O)CCCCCNC(=O)CCC(=O)N(O)CCCCCNC(=O)CCC(=O)N(O)CCCCCN [Example 2, butane-1-sulphonate salt of desferrioxamine-B]
[1]
  Partition Coefficient: 0.008
[2]
  Partition Coefficient: 0.006

## CC(=O)N(O)CCCCCNC(=O)CCC(=O)N(O)CCCCCNC(=O)CCC(=O)N(O)CCCCCN [Example 3, hexane-1-sulphonate salt of desferrioxamine-B]
[1]
  Partition Coefficient: 0.020
[2]
  Partition Coefficient: 0.010

## CC(=O)N(O)CCCCCNC(=O)CCC(=O)N(O)CCCCCNC(=O)CCC(=O)N(O)CCCCCN [Example 5, dodecane-1-sulphonate salt of desferrioxamine-B]
[1]
  Partition Coefficient: 0.450
[2]
  Partition Coefficient: 0.028
